Results as given in US11958821B2, “Phenethylamine compounds salts, polymorphic forms and methods of use thereof” (Terran Biosciences Inc., priority 2021, dated 2024).
Where two headings read alike, the source gives them in different places.

Legend:
[1] = Hygroscopicity of MDMA salts at 75% RH, visual assessment after 24 hours; format: physicochemical; conditions: visual assessment after exposure to 75% RH (room temp) for 24 hours
Protocol: A small amount of each salt was placed in a glass vial and exposed to 75% relative humidity for 24 hours. […] That is, the solids remained free flowing.
All materials having a unique X-ray powder diffraction (XRPD) pattern were characterized by differential scanning calorimetry (DSC), thermogravimetric analysis (TG), and ^1H nuclear magnetic resonance (NMR) spectroscopy. The hygroscopicity of each salt at 75% RH was also evaluated. The water solubility of each salt was estimated by adding water in aliquots to weighed portions of solid at room temperature while sonicating. Whether dissolution had occurred was judged by visual inspection after addition of each solvent aliquot. Solubility numbers were calculated by dividing the weight of the sample by the total amount of solvent used to dissolve the sample. The actual solubilities may be greater than the numbers calculated because of the use of solvent aliquots that were too large or because of slow dissolution rates.

[2] = cited from earlier work
[3] = cited from earlier work; remark: listed apart in the source
Male Sprague-Dawley rats [4] = test: Rat elevated zero-maze study with racemic MDE, R-MDE, S-MDE and chlordiazepoxide; conditions: positive control, 6 mg/kg ip
Protocol: A reduction in the amount of activity on the open areas is considered to reflect an increase in anxiety. The ethologically-based behavior, stretched attend postures (SAP) from closed to open quadrants, is assessed as an index of anxiety. […] Animals
(§1) Male Sprague-Dawley 200-250 g (Envigo UK) rats were used. Animals were group-housed (5 per cage; cage size: 40×40×20 cm) in a temperature-controlled environment (22±2° C.), under a 12 h light-dark cycle (lights on: 08:00 hours) for one week prior to testing. Food and water were freely available. Number of animals per group=5.
(§2) The elevated 0-maze comprises a black Perspex annular platform (105 cm diameter, 10 cm width) elevated to 65 cm above ground level, divided equally into four quadrants. Two opposite quadrants are enclosed by clear red Perspex walls (27 cm high) on both the inner and outer edges of the platform, while the remaining two opposite quadrants are surrounded only by a Perspex “lip” (1 cm high) which serves as a tactile guide to animals on these open areas.
Subjects were weighed and tail marked before being injected. After a specified pretreatment time, subjects were placed in a closed quadrant and a 5-min test period were recorded on videotape for subsequent analysis. The maze was cleaned with 5% methanol/water solution and dried thoroughly between test sessions. Behavioural measures comprise percentage time spent on the open areas (% TO) and frequency of stretched attend postures (SAP) from closed to open quadrants. Animals are scored as being in the open area when all four paws were in an open quadrant and in the closed area only when all four paws have passed over the open-closed divide.
Thirty min later at T=0, rats were individually placed in a closed arm of the zero-maze and behavior was assessed by a “blind” observer using remote video monitoring over the subsequent 5 min. The animal was then removed and the maze carefully wiped with 5% methanol/water solution before the next test was begun.
Thirty min later at T=0, rats were individually placed in a closed arm of the zero-maze and behavior assessed by a “blind” observer using remote video monitoring over the subsequent 5 min. The animal was then removed and the maze carefully wiped with 5% methanol/water solution before the next test was begun.

Male Sprague-Dawley rats [5] = test: Rat elevated zero-maze study with racemic MBDB, R-MBDB, S-MBDB and chlordiazepoxide; conditions: positive control, 6 mg/kg ip
Excerpt: Two opposite quadrants are enclosed by Perspex walls on both the inner and the outer edges of the platform, while the remaining two opposite quadrants are open being enclosed only by a Perspex “lip”. Animals will show a preference for the closed areas, and avoidance of the open sections is assumed to stem from a rodent's natural aversion to open, exposed spaces. A reduction in the amount of activity on the open areas is considered to reflect an increase in anxiety. The ethologically-based behavior stretched attend postures (SAP) from closed to open quadrants is assessed as an index of anxiety. […] Animals
as §1, §2
Subjects were weighed and tail marked before being injected. After a specified pretreatment time, subjects were placed in a closed quadrant and a 5-min test period were recorded on videotape for subsequent analysis. The maze was cleaned with 5% methanol/water solution and dried thoroughly between test sessions. Behavioural measures comprise percentage time spent on the open areas (% TO) and frequency of stretched attend postures (SAP) from closed to open quadrants. Since the control groups were all treated identically with the same vehicle these were combined to increase power. The Chlordiazepoxide groups were also treated identically with the same dose so these were also combined to increase power. Animals are scored as being in the open area when all four paws were in an open quadrant and in the closed area only when all four paws have passed over the open-closed divide.
Thirty min later at T=0, rats were individually placed in a closed arm of the zero-maze and behavior assessed by a “blind” observer using remote video monitoring over the subsequent 5 min. The animals were then removed and the maze carefully wiped with 5% methanol/water solution before the next test was begun.
Thirty min later at T=0, rats were individually placed in a closed arm of the zero-maze and behavior was assessed by a “blind” observer using remote video monitoring over the subsequent 5 min. The animal were then removed and the maze carefully wiped with 5% methanol/water solution before the next test was begun.
Thirty min later at T=0, rats were individually placed in a closed arm of the zero-maze and behavior was assessed by a “blind” observer using remote video monitoring over the subsequent 5 min.

Male Sprague-Dawley rats [6] = test: Rat elevated zero-maze study with MDAI and chlordiazepoxide; format: in vivo
Protocol: Three rats from the vehicle group, 3 rats from the 2.5 mg/kg MDAI group, and 3 rats from the CDP group were tested on a separate day from the other rats.

[7] = Physical stability of MBDB salts at 40° C./75% RH; format: physicochemical
Protocol: During the screen, a single crystal Maleate 1 of sufficient size and quality was obtained from a vapor diffusion experiment with ethanol and hexane. The crystal structure is reported elsewhere but the data confirmed the anhydrous/unsolved nature of the material. […] Two new crystalline forms of MBDB Maleate were observed during the screening designated as MBDB Maleate 2 and MBDB Maleate 3 (FIG. 96, 97). Additional characterization of these samples was conducted to better understand the nature of the materials produced, as shown below. MBDB Maleate 2 was generated once from a cooling crystallization from dioxane. The proton nuclear magnetic resonance (NMR) spectrum was consistent with a monomaleate salt of MBDB and contained residual dioxane. Only a limited amount of material was recovered so the only additional characterization that could be completed was differential scanning calorimetry (DSC). The DSC thermogram appears consistent with an anhydrous/unsolvated form with a likely melt at 96° C. (FIG. 100). […] An attempt was made to reproduce Maleate 2 using the same conditions and seeds of Maleate 2. PXRD analysis of the recovered solids however was consistent with Maleate 1. MBDB Maleate 3 was isolated from an evaporation experiment involving chloroform and ethyl acetate. NMR analysis of the material was consistent with a mono-maleate salt of MBDB. Thermal analysis was consistent with an anhydrous/unsolvated material with a likely melting point of 73° C. (FIG. 101). […] No additional characterization was completed on this sample due to the limited amount of material that was recovered.

[8] = Dynamic vapor sorption (DVS) analysis with post-DVS XRPD; format: physicochemical; conditions: for Hygroscopicity by DVS: 25° C., 5 to 95% RH; for Hygroscopic?: based on moisture uptake at 95% observed during DVS analysis; for Post-DVS XRPD (form change): solids after DVS analysis
Protocol: DVS analysis was carried out using a TA Instruments Q5000 Dynamic Vapor Sorption analyzer. The instrument was calibrated with standard weights and a sodium bromide standard for humidity. Approximately 5-25 mg of sample was loaded into a metal-coated quartz pan for analysis. The sample was analyzed at 25° C. with a maximum equilibration time of one hour in 10% relative humidity (RH) steps from 5 to 95% RH (adsorption cycle) and from 95 to 5% RH (desorption cycle). The movement from one step to the next occurred either after satisfying the equilibrium criterion of 0.01% weight change or, if the equilibrium criterion was not met, after one hour. The percent weight change values were calculated using Microsoft Excel®.

[9] = Estimated solubility of MDMA salts (solvent added in aliquots, visual inspection); format: physicochemical
[10] = tested on: participants diagnosed with at least moderate post-traumatic stress disorder (PTSD); test: Double-blind, randomized, placebo-controlled clinical trial of MDAI-assisted psychotherapy in PTSD; format: in vivo, human
Protocol: A multicenter, randomized, double-blind, placebo-controlled trial is conducted to assess the efficacy and safety of MDAI-assisted psychotherapy versus psychotherapy with placebo control in participants diagnosed with at least moderate post-traumatic stress disorder (PTSD).
This multicenter, randomized, double-blind, placebo-controlled trial is conducted at various sites in the United States with IRB approval from each study site. A flexible dose of MDAI hydrochloride salt or placebo, followed by a supplemental half-dose unless contraindicated by patient's previous response or medical history, is also administered during the Treatment Period with psychotherapy in at least 3 blinded monthly Experimental Sessions. The Supplemental Dose extends the duration of drug effects on the participants during an Experimental Session. An optional Risk Evaluation and Mitigation Strategy (REMS) Protocol may be implemented for MDAI and placebo-groups. The Treatment Period lasts for approximately 12 weeks. During the Treatment Period, each Experimental Session is followed by three Intervening Sessions of non-drug psychotherapy. Each Experimental Session involves an overnight stay. The Primary Outcome measure, the change in Clinician Administered PTSD Scale for DSM-5 (CAPS-5), is determined by a blinded Independent Rater (IR) pool multiple times throughout the study. The study consists of separate periods for each participant. Initially, prospective participants undergo a Screening Period involving an initial eligibility assessment, a medical history intake, informed consent, and enrollment of eligible participants. Next, a Preparation Period is undertaken for enrolled participants involving medication tapering and clinical baseline assessments to confirm each participant meets enrollment criteria. As part of the Preparation Period, a detailed assessment of co-morbidities to PTSD is recorded. Participants may remain on prescribed courses of selective serotonin reuptake inhibitor (SSRI) or serotonin and norepinephrine reuptake inhibitor (SNRI) treatment. Dosages and/or frequency of administration of a prescribed SSRI or SNRI may be adjusted to fit within study parameters. Participants may be required to taper a prescribed course of medication in order to maintain eligibility within the study. The Treatment Period consists of three monthly Experimental Sessions and associated Intervening Sessions of integrative behavioral psychotherapy. The Treatment Period lasts approximately 12 weeks. Following the Treatment Period is a Follow-up Period and Study Conclusion. During the Follow-up Period and Study Conclusion, participants complete 4 weeks with no study visits, followed by a Study Conclusion visit.
This study compares the effects of three blinded Experimental Sessions of psychotherapy in combination with flexible doses of MDAI or placebo administered as described below. Non-drug preparatory and intervening psychotherapy sessions are also included. Patient's weight is determined for dosage calculation. Initial dose is 100 mg unless this will result in a dosage of less than 1.5 mg/kg of patient weight. Initial dose thereby adjusted upward in 50 mg increments to deliver the lowest dose possible of at least 1.5 mg/kg of patient weight. Initial dose for Experimental Session 2 and 3 is cumulative dose calculated by adding the initial dose plus REMS protocol dose used the previous Experimental Session for each patient.
Randomization occurs prior to the initiation of Experimental Session 1. […]

[11] = oral, people, MDAI Dosages (psychonautwiki)

Compound: CNC(C)Cc1ccc2c(c1)OCO2.CNC(C)Cc1ccc2c(c1)OCO2.O=C(O)[C@@H](O)[C@H](O)[C@H](O)[C@@H](O)C(=O)O (stereo not shown) [Galactarate (Mucate)]
- Hygroscopic at 75% RH? [1]: no evidence of hygroscopicity and No

Compound: CCC(Cc1ccc2c(c1)OCO2)NC (stereo not shown) [MBDB, 1-(benzo[d][1,3]dioxol-5-yl)-N-methylbutan-2-amine]
- Oral dose for Drug Activity Level Threshold [2, 11]: 40 mg
- Oral dose for drug activity level Very Strong [2, 11]: ≥300 mg
- Effects: Coming Down, Time After Dose ([3]; Duration of effects of MBDB in people, adapted from PiHKAL 1991): ~90 min
- Reported time to achieve peak effects ([3]; after dosing): 0.75 to 1 h
- Oral MBDB Dose, Drug Activity Level: Very Strong ([3]; oral, people): ≥350 mg

Compound: CNC1=Nc2ccc(Cl)cc2C(c2ccccc2)=[N+]([O-])C1 [CDP, Chlordiazepoxide, reference compound]
- Frequency of stretched attend postures (SAP) (Male Sprague-Dawley rats [4]): significant reduction in SAPs
- Percentage of time spent in the open arms (% TO) (Male Sprague-Dawley rats [4]): significant increase in time in the open arms for the R MDE group and S MDE group only
- Frequency of stretched attend postures (SAP) (Male Sprague-Dawley rats [5]): significant reduction in SAPs
- Percentage of time in the open arms (% TO) (Male Sprague-Dawley rats [5]): did not show significance over vehicle
- Frequency of HDIPS (Male Sprague-Dawley rats [6]; positive control, 6 mg/kg ip): trend towards increased
- Percentage of time in the open arms (% TO) (Male Sprague-Dawley rats [6]; positive control, 6 mg/kg ip): significant increase in the percentage of time in the open arms
- Total line crossings (Male Sprague-Dawley rats [6]; positive control, 6 mg/kg ip): trend towards increased
- Total open arm entries (Male Sprague-Dawley rats [6]; positive control, 6 mg/kg ip): trend towards increased

Compound: CCC(Cc1ccc2c(c1)OCO2)NC.O=P(O)(O)O (stereo not shown) [Phosphate 1]
- Physical Stability ([7]; 40° C./75% RH overnight): No change
- Physical Stability ([7]; after 1 day at 40° C./75% RH): No visible change
- Hygroscopicity by DVS [8]: hygroscopic
- Hygroscopic? [8]: Hygroscopic
- Post-DVS XRPD (form change) [8]: no form change

Compound: CNC(C)Cc1ccc2c(c1)OCO2.CNC(C)Cc1ccc2c(c1)OCO2.O=C(O)/C=C/C(=O)O (stereo not shown) [Fumarate]
- Hygroscopic at 75% RH? [1]: no evidence of hygroscopicity and No
- Hygroscopicity by DVS ([8]; listed as MDMA Hemi-Fumarate): Slightly hygroscopic
- Hygroscopicity by DVS ([8]; listed as MDMA hemi-fumarate): slightly hygroscopic
- Post-DVS XRPD (form change) [8]: Unchanged
- Solubility ([9]; 1,4-dioxane): <1000 µg/mL
- Solubility ([9]; 1:1 MeOH:chloroform (CHCl3)): 35000 µg/mL
- Solubility ([9]; 2-propanol (IPA)): <1000 µg/mL
- Solubility ([9]; 95:5 ACN:water): 4000 µg/mL
- Solubility ([9]; 95:5 EtOH:water): 15000 µg/mL
- Solubility ([9]; 95:5 IPA:water): 5000 µg/mL
- Solubility ([9]; 95:5 THF:water): 14000 µg/mL
- Solubility ([9]; 95:5 acetone:water): 2000 µg/mL
- Solubility ([9]; 95:5 dioxane:water): 6000 µg/mL
- Solubility ([9]; acetone): <1000 µg/mL
- Solubility ([9]; acetonitrile (ACN)): <1000 µg/mL
- Solubility ([9]; dichloromethane (DCM)): <1000 µg/mL
- Solubility ([9]; diethyl ether (Et2O)): <1000 µg/mL
- Solubility ([9]; ethanol (EtOH)): 4000 µg/mL
- Solubility ([9]; ethyl acetate (EtOAc)): <1000 µg/mL
- Solubility ([9]; methanol (MeOH)): 47000 µg/mL
- Solubility ([9]; tetrahydrofuran (THF)): <1000 µg/mL
- Solubility ([9]; water): 260000 µg/mL

Compound: CNC(C)Cc1ccc2c(c1)OCO2.O=C(O)CCC(=O)O (stereo not shown) [Succinate]
- Hygroscopic at 75% RH? [1]: No

Compound: NC1Cc2cc3c(cc2C1)OCO3 [MDAI, 5,6-methylenedioxy-2-aminoindane]
- Percentage of time in the open arms (% TO) (Male Sprague-Dawley rats [6]; 0.625 mg/kg ip): numerical increase in % TO that was greater than vehicle or any other dose of MDAI
- Percentage of time in the open arms (% TO) (Male Sprague-Dawley rats [6]; doses too low or too high (0.15, 0.31, 1.25, 2.5)): opposite effect on % TO
- Total open arm entries (Male Sprague-Dawley rats [6]; higher and lower doses): trended towards an anxiogenic effect
- Total open arm entries (Male Sprague-Dawley rats [6]; middle dose): increase vs placebo that trended towards significance
- Daytime sleepiness (ESS) ([10]; Study Conclusion): significant improvement in lessening daytime sleepiness
- Clinician-rated functional impairment score (SDS) ([10]; Study Conclusion, vs placebo): significant improvement in clinician-rated functional impairment score
- Depression (HAM-D) ([10]; Study Conclusion, vs placebo): significant improvement depression
- Change in CAPS-5 assessment ([10]; Study Conclusion, vs placebo, hydrochloride salt with psychotherapy): significant mean reduction in CAPS-assessment compared to the placebo group
- Adverse anxiogenic incidents ([10]; vs placebo-treated controls): without a significant increase in adverse anxiogenic incidents
- Reported time to achieve peak effects ([2]; after dosing): 0.75 to 2 h

Compound: CNC(C)Cc1ccc2c(c1)OCO2.O=C(O)/C=C\C(=O)O (stereo not shown) [Maleate Form 2]
- Hygroscopic at 75% RH? [1]: No

Compound: CNC(C)Cc1ccc2c(c1)OCO2.O=P(O)(O)O.O=P(O)(O)O (stereo not shown) [Phosphate]
- Hygroscopic at 75% RH? [1]: no evidence of hygroscopicity and No

Compound: CCC(Cc1ccc2c(c1)OCO2)NC.O=C(O)CCC(=O)O (stereo not shown) [MBDB succinate Form 2]
- Physical Stability ([7]; after 1 day at 40° C./75% RH): No visible change
- Hygroscopicity by DVS [8]: moderately hygroscopic
- Post-DVS XRPD (form change) [8]: no form change

Compound: CCC(Cc1ccc2c(c1)OCO2)NC.O=C(O)CCC(=O)O (single isomer, unassigned) [Succinate 2]
- Physical Stability ([7]; 40° C./75% RH overnight): No change
- Hygroscopicity by DVS [8]: possible hydrate formation at high RH conditions
- Hygroscopic? [8]: Moderately

Compound: CNC(C)Cc1ccc2c(c1)OCO2.O=C(O)/C=C\C(=O)O (stereo not shown) [Maleate Form 1]
- Hygroscopic at 75% RH? [1]: No
